According to a melting point compilation (Tetko et al.):

Row | melting point [°C] | Structure (SMILES)
1 | 84 | Cc1cccc(NC(=O)c2cncc(Cl)n2)c1
2 | 222 | CC(=O)Oc1ccc(N/C=C2\C(=O)C3(C)CCC2C3(C)C)cc1 (stereo unspecified)
3 | -73.2 | C1CSC1
4 | 90 | CC(C)(C)OC(=O)NC(Cc1ccc2ccccc2c1)C(=O)O (stereo unspecified)
5 | 88 to 89 | O=Cc1ccc(N2CCOCC2)nc1
6 | 33.5 | Cc1ccc2c(C)cccc2c1C
7 | 92 | O=C(/C=C/c1ccc(OCC2CO2)cc1)c1ccccc1 (stereo unspecified)
8 | 88 to 90 | O=C(O)CCC1CCCCCCCCCCC1=O (stereo unspecified)
9 | 128 to 130 | O=C1CCCN1c1ccc([N+](=O)[O-])cc1
10 | 256 to 258 | CCOC(=O)C12C(c3cc(Cl)ccc3OP1(=O)OCC)C1(C(=O)OCC)C2c2cc(Cl)ccc2OP1(=O)OCC (stereo unspecified)
11 | 223 to 227 | O=c1oc(=O)c2ccccc2c2ccccc12
12 | 30 | CCOC(=S)SSC(=S)OCC
13 | 26 | O=C=N[Si](N=C=O)(N=C=O)N=C=O
14 | 254 | N=c1oc2ccccc2cc1C(N)=S
15 | 111 to 112 | O=Cc1cc2ccccc2n1S(=O)(=O)c1ccccc1
16 | 160 | O=[N+]([O-])c1ccc(Sc2ccc([N+](=O)[O-])cc2)cc1
17 | 48 to 49 | Nc1cc(Br)ccc1Cl
18 | 116 | O=C(O)Cc1ccccc1I
19 | 259 to 261 | O=C(O)c1cncnc1
20 | 160 to 162 | Cc1cc(C)cc(P(c2cc(C)cc(C)c2)c2cc(C)cc(C)c2)c1
21 | 56 to 59 | ON=Cc1ccccc1O
22 | 5.5 | CCCCCCC(O)CC=CCCCCCCCC(=O)O (stereo unspecified)
23 | -1.67 | CCC(O)C(C)(C)C (stereo unspecified)
24 | 156 to 158 | O=C(C=Cc1cccc(O)c1)c1ccccc1

Row | melting point [°C] | Structure (SMILES)
25 | 256 | Cc1cc(C)n2nc(N)c(/N=N/c3ccccc3C)c2n1
26 | 142 | C=CC(=O)NC(O)C(O)NC(=O)C=C (stereo unspecified)
27 | 75 | CCCCCCCCCCCCCCCCCCCCCCCCCCCCCCCCCCC
28 | -67 | CCCCCCCCOC(=O)CCCCCCCCC(=O)OCCCCCCCC
29 | 69 to 72 | CCCCCCCCCC[C@H](O)CO
30 | 140 | Nc1ccc(-c2ccc(NNc3ccccc3)cc2)cc1
31 | 110 | COc1ccc(CC(=O)O)c(OC)c1
32 | 189 | CN(C)c1ccc(/C=C(/C#N)C(N)=S)cc1
33 | 234 | c1ccc(Oc2nc(Oc3ccccc3)nc(Oc3ccccc3)n2)cc1
34 | 205 | COc1ccccc1-c1nnc2n1NC(c1ccccc1O)S2 (stereo unspecified)
35 | 189 to 193 | CSc1nc(N)cc(N)n1
36 | 75 to 80 | CCOC(=O)c1c(C=O)c(C)n(C2CC2)c1C
37 | 142 to 143 | N#CCN1C(=O)c2ccccc2S1(=O)=O
38 | 96.5 | CNC(=O)COc1ccccc1OCC(O)CNC(C)(C)C (stereo unspecified)
39 | 107 | Cc1c(I)ccnc1Cl
40 | 153 to 154 | CC(=O)C(=Cc1ccc(-c2cccc([N+](=O)[O-])c2)o1)C(C)=O
41 | 158 | N#Cc1ccc(O)c(Br)c1
42 | 136 | O=C1c2ccccc2N(C(=O)CN2CCOCC2)CN1c1ccccc1
43 | 93 to 98 | N#Cc1cc(Br)ccc1N
44 | 161 to 166 | FC(F)(F)c1ccnc(S)n1
45 | 144 to 146 | O=C=NC12CC3CC(CC(C3)C1)C2
46 | 184 to 186 | CC(=O)NC1C(O)CC(O)(C(=O)O)OC1C(O)C(O)CO (stereo unspecified)
47 | 155 | CC(=O)c1ccc(NC(=O)C(F)(F)C(F)(F)C(F)(F)C(F)(F)C(F)(F)C(F)(F)C(F)(F)C(F)(F)F)cc1
48 | 168 | COC(=O)C=Cc1ccc(C=CC(=O)OC)c(NC(C)=O)c1

Row | melting point [°C] | Structure (SMILES)
49 | 175 | CN(C)c1ccc(C(=O)NN)cc1
50 | 73 | CSc1ccc2c(c1)N(CCC1CCCCN1C)c1ccccc1S2 (stereo unspecified)
51 | 95.3 | CC(C)C(O)(c1ccc(OC(F)(F)F)cc1)c1cncnc1 (stereo unspecified)
52 | 191 | NCCCCCCCCCCC(=O)O
53 | -80 | CN(C)CCOCCN(C)C
54 | 146 to 150 | NC(=O)CC[C@H](NC(=O)C(F)(F)F)C(=O)O
55 | -13 | CC(CO)c1ccccc1 (stereo unspecified)
56 | 60 to 62 | Cc1ccc([N+](=O)[O-])cc1N=C=S
57 | 233 | COc1ccc(Nc2[nH]c(=S)nnc2-c2ccccc2)cc1
58 | 120 | N#Cc1ccc(N=C=S)cc1
59 | 15 | COC(=O)C1CC(=O)N(C)C1 (stereo unspecified)
60 | 243 to 246 | S=c1[nH]c2ncccc2o1
61 | 304 | CC(=O)Oc1c(-c2cccc(-c3[nH]c4cc([N+](=O)[O-])ccc4c3OC(C)=O)c2)[nH]c2cc([N+](=O)[O-])ccc12
62 | 102 | CCCCCCCc1ccc(NC(=O)c2ccc(CC)cc2)cc1
63 | 102 | CCCCCCCc1ccc(C(=O)O)cc1
64 | 141 | CC12CCC(C(C(Br)c3ccccc3)OC1=O)C2(C)C (stereo unspecified)
65 | 211 | O=C(C1=NN(c2ccccc2)C2C(=O)N(c3ccc(F)cc3)C(=O)C12)c1ccccc1 (stereo unspecified)
66 | 251 | Cc1nc(-c2ccc(Cl)cc2)sc1C(=O)O
67 | 58 to 62 | O=[N+]([O-])c1cc(C(F)(F)F)ccc1Oc1ccccc1Br
68 | 73 to 74 | CCOC(=O)C(=NNc1ccccc1[N+](=O)[O-])C(C)=O
69 | 102 | COc1ccc(Nc2ccc(OC)cc2)cc1
70 | -3 | C#CC(C)O (stereo unspecified)
71 | 43 | Cc1ccncc1C#N
72 | 112 | CCNC(N)=S

Row | melting point [°C] | Structure (SMILES)
73 | 120 to 125 | C1=CC2CC1[C@@H](P(c1ccccc1)c1ccccc1)[C@@H]2P(c1ccccc1)c1ccccc1
74 | 65 to 66 | O=C(c1ccc(Cl)cc1)C(Br)c1ccccc1 (stereo unspecified)
75 | 117 to 118 | c1ccc2cc3c(cc2c1)OCCOCCOCCOCCO3
76 | -6.8 | N#CCCN1CCCCC1
77 | 322 | O=c1c(Cl)c[nH]cc1Cl
78 | 55 | O=C(CBr)c1ccccc1[N+](=O)[O-]
79 | 110 | NC(=S)c1cccc(F)c1
80 | 215 | CCOC(=O)C1=C(C)OC(N)=C(c2nc3ccccc3s2)C1c1ccc(N(C)C)cc1 (stereo unspecified)
81 | 206 to 208 | Nc1nc(-c2ccc(O)cc2)cs1
82 | 260 | Cc1cc([N+](=O)[O-])cnc1N
83 | 98 | O=S(=O)(O)CS(=O)(=O)O
84 | 49.5 to 54.9 | CNCc1ccc(-c2ncccn2)cc1
85 | 223 to 224 | c1ccc(-c2nnc3n2CN(c2ccccn2)CS3)cc1
86 | 134 | Nc1c(I)cc(I)c(C(=O)N(CCC(=O)O)c2ccccc2)c1I
87 | 155 | Oc1ccccc1C=Nn1c(S)nnc1C(F)(F)F
88 | 208 | Nc1ccc([N+](=O)[O-])cc1O
89 | 9 | ICCCCCI
90 | 206 | CC(=O)OC1(C(C)=O)CCC2C3CC(C)C4=CC(=O)CCC4(C)C3CCC21C (stereo unspecified)
91 | 45 to 46 | O=Cc1ccc(Oc2ccccn2)cc1
92 | 106 | Nc1ccccc1/C=C/c1ccccc1
93 | 157 | Cn1nc(C(C)(C)C)cc1N
94 | 103 to 104 | ON=C1CCCSC1
95 | -112 | CCCCCC(C)CO (stereo unspecified)
96 | 80 to 90 | O=C(Cl)c1nnc(-c2ccccc2)o1

Row | melting point [°C] | Structure (SMILES)
97 | 163 | CC12CCC3C(CCC4CC(=O)CCC43C)C1CC(=O)C2 (stereo unspecified)
98 | -120 | FC(F)(F)C(Cl)C(F)(F)F
99 | 202 | CC(C)C1=C(O)C(=O)C2=C(C1=O)[C@@H]1O[C@@H]1[C@H]1C(C)(C)CCC[C@]21C
100 | 41 to 43 | Cn1ccc2c(C#N)cccc21
101 | -20 | OCCC1CCCCC1
102 | 195 | Cc1ccc(C)c2c1C(=O)OC2=O
103 | 79 | Cc1cc(C)c(C)c(I)c1C
104 | 36 | C=Cc1ccc(C(=O)OC)cc1
105 | 53 | C[C@H](O)CC[C@H](C)O
106 | 30 | ICCCCCCCCCCI
107 | -32 | CCCCCCCCC=CCCCCCCCC(=O)OCC(COC(=O)CCCCCCCC=CCCCCCCCC)OC(=O)CCCCCCCC=CCCCCCCCC (stereo unspecified)
108 | 152 | COc1cc(C(=O)Cc2ccccc2)c([N+](=O)[O-])cc1OC
109 | -5 | CCCCCCCC(O)CC (stereo unspecified)
110 | 91 to 96 | COC(=O)[C@@H]1C[C@@H](O)CN1C(=O)OC(C)(C)C
111 | 267 | C1C2CC3CC1CC(C2)C3
112 | 73 to 76 | O=C1OC(=O)C2CCC12 (stereo unspecified)
113 | 89 to 95 | O=C(O)C(=O)c1cccs1
114 | 67 | CCOc1cccc(C=O)c1O
115 | -30 | Cc1ccccc1CN
116 | 45 to 47 | N#CCCOc1ccc(Cl)cc1
117 | 157 | Clc1ccc(Cl)c(-c2nnn[nH]2)c1

Row | Structure (SMILES) | melting point [°C]
118 | CCC(=O)OC1CCC2(C)C(=CCC3C2CCC2(C)C(OC(=O)CC)CCC32)C1 (stereo unspecified) | 113
119 | N#CC1(N=NC2(C#N)CCCCC2)CCCCC1 | 116
120 | COc1ccc(N)cc1OC | 88
121 | COc1cc2c(c(O)c1OC)C(C)N(C)CC2 (stereo unspecified) | 112
122 | OC(c1ccccc1)(c1ccccc1)C1CCNCC1 | 160
123 | CN1CCN(Cc2ccc(I)cc2)CC1 | 105 to 106
124 | COc1cc2c(cc1OC)C1(O)C(=O)c3ccc4c(c3OC1CO2)C=CC(C)(C)O4 (stereo unspecified) | 198
125 | Oc1ccc2c(c1)C13CCCCC1(O)C(C2)N(CC1CCC1)CC3 (stereo unspecified) | 216
126 | CCC(COC(=O)c1cc(OC)c(OC)c(OC)c1)(c1ccccc1)N(C)C (stereo unspecified) | 79
127 | CC#CC1(O)CCC2C3CC(C)C4=CC(=O)CCC4(C)C3CCC21C (stereo unspecified) | 102
128 | Cc1cc2ccccc2cc1C | 105
129 | C=C1CC2CC(OC(=O)c3ccccc3)CCC2(C)C2CCC3(C)C(OC(=O)c4ccccc4)CCC3C12 (stereo unspecified) | 192
130 | Nc1ncnc2c1ncn2C1OC(CI)C(O)C1O (stereo unspecified) | 178 to 187
131 | O=C(NC(=O)c1c(F)cccc1F)Nc1cc(Cl)c(OC(F)(F)C(F)C(F)(F)F)cc1Cl (stereo unspecified) | 169
